This note sets out measurements from ChEMBL document CHEMBL3217650, “Discovery of novel selective Sigma-1 ligands as cognitive enhancers” (Medchemcomm, 2011).

Sequence of 5-hydroxytryptamine receptor 2A (Homo sapiens) (P28223 whole entry): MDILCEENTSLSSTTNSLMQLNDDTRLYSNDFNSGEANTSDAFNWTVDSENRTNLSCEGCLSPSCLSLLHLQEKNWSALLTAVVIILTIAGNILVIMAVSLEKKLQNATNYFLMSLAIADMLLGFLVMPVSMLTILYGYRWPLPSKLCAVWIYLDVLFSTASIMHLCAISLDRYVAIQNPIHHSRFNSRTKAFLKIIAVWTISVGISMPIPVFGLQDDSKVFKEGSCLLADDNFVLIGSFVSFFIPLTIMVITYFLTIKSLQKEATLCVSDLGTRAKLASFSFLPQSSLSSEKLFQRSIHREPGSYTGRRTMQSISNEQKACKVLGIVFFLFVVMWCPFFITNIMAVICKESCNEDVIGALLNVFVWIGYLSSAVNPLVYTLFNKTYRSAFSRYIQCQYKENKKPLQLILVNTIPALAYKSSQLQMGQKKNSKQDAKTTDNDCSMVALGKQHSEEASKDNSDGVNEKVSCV
Sequence of Opioid receptor (Rattus norvegicus) (P33533 whole entry, looked up): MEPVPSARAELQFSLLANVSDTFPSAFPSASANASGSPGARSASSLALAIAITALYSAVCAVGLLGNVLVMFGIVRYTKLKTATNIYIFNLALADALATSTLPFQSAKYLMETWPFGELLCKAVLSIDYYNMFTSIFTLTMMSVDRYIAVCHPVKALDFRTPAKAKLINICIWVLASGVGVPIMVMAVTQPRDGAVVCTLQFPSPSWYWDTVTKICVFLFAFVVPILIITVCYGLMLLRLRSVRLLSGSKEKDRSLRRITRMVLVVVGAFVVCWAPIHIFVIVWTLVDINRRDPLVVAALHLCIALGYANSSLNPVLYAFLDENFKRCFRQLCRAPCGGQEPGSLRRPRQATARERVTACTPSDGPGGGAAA
Sequence of Opioid receptor (Rattus norvegicus) (P33535 whole entry, looked up): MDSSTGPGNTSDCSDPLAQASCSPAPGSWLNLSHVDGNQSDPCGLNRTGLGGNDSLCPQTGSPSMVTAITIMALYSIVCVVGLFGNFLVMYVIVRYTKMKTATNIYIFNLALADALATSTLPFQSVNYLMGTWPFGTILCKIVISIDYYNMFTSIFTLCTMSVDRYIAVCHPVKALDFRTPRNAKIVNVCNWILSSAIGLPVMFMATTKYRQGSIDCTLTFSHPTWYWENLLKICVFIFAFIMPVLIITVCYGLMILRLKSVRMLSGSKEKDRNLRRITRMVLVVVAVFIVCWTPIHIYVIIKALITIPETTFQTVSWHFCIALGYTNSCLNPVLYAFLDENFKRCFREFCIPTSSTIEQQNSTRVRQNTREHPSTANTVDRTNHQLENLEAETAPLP
Sequence of Opioid receptor (Rattus norvegicus) (P34975 whole entry, looked up): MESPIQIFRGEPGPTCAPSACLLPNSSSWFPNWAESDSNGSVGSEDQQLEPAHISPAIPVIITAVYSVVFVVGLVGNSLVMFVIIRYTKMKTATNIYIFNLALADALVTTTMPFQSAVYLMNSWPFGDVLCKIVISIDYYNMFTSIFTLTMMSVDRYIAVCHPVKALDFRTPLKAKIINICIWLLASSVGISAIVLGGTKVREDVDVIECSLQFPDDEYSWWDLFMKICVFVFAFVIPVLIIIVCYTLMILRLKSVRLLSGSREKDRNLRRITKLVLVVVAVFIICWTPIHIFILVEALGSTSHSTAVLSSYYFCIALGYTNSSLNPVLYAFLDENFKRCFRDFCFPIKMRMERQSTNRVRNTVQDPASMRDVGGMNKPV

Test system in one series: not listed separately
As to the kind of experiment: Intrinsic clearance in rat liver microsomes measured per mg of protein. The conditions noted are these: read-out: CLH. It counts as ADME.
Take `CC(C)N(CCNC(=O)[C@H]1C[C@@H]1c1ccccc1)C(C)C` (racemic): the microsomal CLint was more than 300 µL/min/mg.

The target of another series is Sigma non-opioid intracellular receptor 1 (Homo sapiens, UniProt Q99720). The experiment in a line: Displacement of [3H]-pentazocine from human recombinant sigma-1 receptor expressed in CHO cells after 180 mins by beta counting analysis. It counts as cell-based.
Sequence of Sigma non-opioid intracellular receptor 1 (Q99720 whole entry): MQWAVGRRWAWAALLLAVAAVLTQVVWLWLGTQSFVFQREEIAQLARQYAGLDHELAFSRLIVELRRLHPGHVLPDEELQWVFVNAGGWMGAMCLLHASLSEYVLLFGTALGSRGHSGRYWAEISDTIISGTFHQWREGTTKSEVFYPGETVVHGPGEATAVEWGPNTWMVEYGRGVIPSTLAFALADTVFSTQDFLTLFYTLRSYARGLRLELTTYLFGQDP
Conditions: not given
For `CCN(CC)CCNC(=O)[C@H]1C[C@@H]1c1ccccc1` (racemic), the Ki is 126 nM.

As for `O=C(NCCCNC1CCCCC1)[C@H]1C[C@@H]1c1ccccc1` (stereo in doubt; (-)-1) [listing 1 of 2 here], the Ki is 158 nM.

With `O=C(NCCN1CCCC1)[C@H]1C[C@@H]1c1ccccc1` (racemic), the Ki was 63.1 nM.

With `O=C([C@H]1C[C@@H]1c1ccc(F)cc1)N1CCC(N2CCCCC2)CC1` (racemic), the Ki is 100 nM.

With `O=C(NC1CCC(N2CCCCC2)CC1)[C@H]1C[C@@H]1c1ccccc1` (mixture of isomers), the Ki was 1260 nM.

As to `O=C([C@H]1C[C@@H]1c1ccccc1)N1CCN(c2ccccc2)CC1` (racemic), the Ki is 1260 nM.

Take `CC(C)N(CCNC(=O)[C@H]1C[C@@H]1c1ccccc1)C(C)C` (racemic): the Ki was 63.1 nM.

With `CN(C)CC(C)(C)CNC(=O)[C@H]1C[C@@H]1c1ccccc1` (racemic), the Ki was 398 nM.

For the molecule `O=C(NCCCNC1CCCCC1)[C@H]1C[C@@H]1c1ccccc1` (racemic) [listing 1 of 2 here], the Ki is 200 nM.

A further series addresses 5-hydroxytryptamine receptor 2A (Homo sapiens) (UniProt P28223). The experiment in a line: Binding affinity to 5HT-2a receptor (unknown origin) at 10 uM by displacement assay relative to control.
Conditions: not given
Molecule `CCN(CC)CCNC(=O)[C@H]1C[C@@H]1c1ccccc1` (racemic) came in with an inhibition of 50%.

For the molecule `O=C(NCCCNC1CCCCC1)[C@H]1C[C@@H]1c1ccccc1` (racemic) [listing 2 of 2 here], the inhibition is 50%.

`O=C(NCCN1CCCC1)[C@H]1C[C@@H]1c1ccccc1` (racemic): the inhibition was more than 90%.

Take `CC(C)N(CCNC(=O)[C@H]1C[C@@H]1c1ccccc1)C(C)C` (racemic): the inhibition was determined as 50%.

Test system in the next series: not listed separately
The experiment in a line: Octanol-water distribution coefficient, log D of the compound at pH 7.4. The series is classed as physicochemical.
Conditions: not given
Regarding `O=C(NCCCNC1CCCCC1)[C@H]1C[C@@H]1c1ccccc1` (racemic) [listing 1 of 2 here], the logD turned out to be 1.3.

Still in this series, the particulars now being: read-out: logD.
`CCN(CC)CCNC(=O)[C@H]1C[C@@H]1c1ccccc1` (racemic): the logD came to 0.6.

In the case of `O=C(NCCCNC1CCCCC1)[C@H]1C[C@@H]1c1ccccc1` (stereo in doubt; (-)-1) [listing 1 of 2 here], the logD turned out to be 1.1.

Consider `O=C(NCCN1CCCC1)[C@H]1C[C@@H]1c1ccccc1` (racemic), for which the logD was 0.9.

Consider `O=C(NC1CCC(N2CCCCC2)CC1)[C@H]1C[C@@H]1c1ccccc1` (mixture of isomers), for which the logD came out at 0.9.

Turning to `O=C([C@H]1C[C@@H]1c1ccccc1)N1CCN(c2ccccc2)CC1` (racemic), the logD came out at 3.8.

For `CC(C)N(CCNC(=O)[C@H]1C[C@@H]1c1ccccc1)C(C)C` (racemic), the logD is 1.

In the case of `CN(C)CC(C)(C)CNC(=O)[C@H]1C[C@@H]1c1ccccc1` (racemic), the logD is 0.8.

A further series addresses Adrenergic receptor alpha-1 (Homo sapiens) (UniProt P35348+P25100+P35368). The experiment in a line: Binding affinity to adrenergic alpha-1 receptor (unknown origin) at 10 uM by displacement assay relative to control. The series is classed as protein assay.
Conditions: not given
As to `O=C(NCCCNC1CCCCC1)[C@H]1C[C@@H]1c1ccccc1` (racemic) [listing 2 of 2 here], the inhibition turned out to be 50%.

Test system in a further series: not listed separately
As to the kind of experiment: Dissociation constant, pKa of the compound. The series is classed as physicochemical.
Conditions: not given
Regarding `CCN(CC)CCNC(=O)[C@H]1C[C@@H]1c1ccccc1` (racemic), the pKa was found to be 8.9.

With `O=C(NCCN1CCCC1)[C@H]1C[C@@H]1c1ccccc1` (racemic), the pKa came out at 9.2.

For the molecule `O=C(NC1CCC(N2CCCCC2)CC1)[C@H]1C[C@@H]1c1ccccc1` (mixture of isomers), the pKa turned out to be 9.6.

Molecule `O=C([C@H]1C[C@@H]1c1ccccc1)N1CCN(c2ccccc2)CC1` (racemic) had a pKa of less than 2.5.

The molecule `CC(C)N(CCNC(=O)[C@H]1C[C@@H]1c1ccccc1)C(C)C` (racemic) registered a pKa of 9.7.

The molecule `CN(C)CC(C)(C)CNC(=O)[C@H]1C[C@@H]1c1ccccc1` (racemic) gave a pKa of 8.9.

The molecule `O=C(NCCCNC1CCCCC1)[C@H]1C[C@@H]1c1ccccc1` (racemic) [listing 1 of 2 here] had a pKa of 10.1.

The species named for a further series is Homo sapiens. As to the kind of experiment: Binding affinity to Ca2+ channel (unknown origin) at 10 uM by displacement assay relative to control.
Conditions: not given
Molecule `O=C(NCCCNC1CCCCC1)[C@H]1C[C@@H]1c1ccccc1` (racemic) [listing 2 of 2 here] registered an inhibition of more than 90%.

Another series addresses Opioid receptor (Rattus norvegicus) (UniProt P33533+P34975+P33535). As to the kind of experiment: Displacement of [3H]-naloxone from opioid receptor in rat cerebral cortex at 10 uM relative to control. It counts as tissue-based.
Conditions: not given
In turn, `CCN(CC)CCNC(=O)[C@H]1C[C@@H]1c1ccccc1` (racemic) gave an inhibition of more than 90%.

The species named for another series is Homo sapiens. As to the kind of experiment: Binding affinity to […] channel (unknown origin) at 10 uM by displacement assay relative to control.
Conditions: not given
With `O=C(NCCCNC1CCCCC1)[C@H]1C[C@@H]1c1ccccc1` (stereo in doubt; (-)-1) [listing 2 of 2 here], the inhibition turned out to be 50%.

The species named for the next series is Rattus norvegicus. As to the kind of experiment: Displacement of [3H]1,3-di-O-tolylguanidine from sigma-2 receptor in rat cerebral cortex at 10 uM relative to control.
Conditions: not given
It counts as tissue-based.
On to `O=C([C@H]1C[C@@H]1c1ccc(F)cc1)N1CCC(N2CCCCC2)CC1` (racemic), for which the inhibition is 61%.
